# ChEMBL document CHEMBL1157697, “Novel ester and acid derivatives of the 1,5-diarylpyrrole scaffold as anti-inflammatory and analgesic agents. Synthesis and in vitro and in vivo biological evaluation” (J Med Chem, 2010)
# Columns and labels:
# Mus musculus [1] = organism: Mus musculus; test: Toxicity in Swiss mouse assessed as number of falls in 30 seconds after 60 mins by rotarod test; format: organism-based; settings: in vivo, 1 h
# Rattus norvegicus [2] = test: Antiinflammatory activity against carrageenan-induced paw edema rat inflammatory model assessed as paw pressure at 10 mg/kg, po after 30 mins; format: functional
# [3] = Clearance in Sprague-Dawley rat at 10 mg/kg, iv; format: ADME, organism-based; parameters: dose 10 mg/kg, route intravenous; settings: in vivo
# Rattus norvegicus [4] = test: Rate of blood flow in Sprague-Dawley rat at 10 mg/kg, iv; format: ADME, organism-based; parameters: dose 10 mg/kg, route intravenous; settings: in vivo
# Rattus norvegicus [5] = test: Antiinflammatory activity against carrageenan-induced paw edema rat inflammatory model assessed as paw pressure at 10 mg/kg, po after 60 mins; format: functional
# [6] = Metabolic stability in human liver microsomes at 0.1 uM; format: ADME, Microsome; settings: read-out: Stability
# Rattus norvegicus [7] = organism: Rattus norvegicus; test: Analgesic activity against zymosan-induced hyperalgesia in rat assessed maximum effect measured up to 2 hrs
# [8] = target: T1, Prostaglandin G/H synthase 2 (Homo sapiens, UniProt P35354); test: Inhibition of COX2 in human whole blood assessed as inhibition of LPS-induced PGE2 production by RIA; format: tissue-based
# T1 sequence (P35354 whole entry): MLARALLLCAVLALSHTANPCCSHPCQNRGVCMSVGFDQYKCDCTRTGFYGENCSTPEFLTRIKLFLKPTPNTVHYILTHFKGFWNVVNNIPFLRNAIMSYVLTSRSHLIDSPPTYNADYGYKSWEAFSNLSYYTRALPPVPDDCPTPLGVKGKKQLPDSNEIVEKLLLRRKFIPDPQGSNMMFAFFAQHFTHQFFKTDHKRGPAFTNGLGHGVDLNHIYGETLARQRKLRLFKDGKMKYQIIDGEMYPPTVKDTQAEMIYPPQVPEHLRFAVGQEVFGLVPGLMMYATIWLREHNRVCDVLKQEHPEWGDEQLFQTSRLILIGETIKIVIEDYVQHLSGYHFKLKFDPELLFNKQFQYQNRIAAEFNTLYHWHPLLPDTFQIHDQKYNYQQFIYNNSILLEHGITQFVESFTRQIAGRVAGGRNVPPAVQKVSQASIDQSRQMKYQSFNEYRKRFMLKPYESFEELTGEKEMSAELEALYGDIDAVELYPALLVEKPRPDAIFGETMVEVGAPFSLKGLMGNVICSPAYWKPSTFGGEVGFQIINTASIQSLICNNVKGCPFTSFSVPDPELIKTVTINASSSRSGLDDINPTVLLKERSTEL
# Rattus norvegicus [9] = test: Antiinflammatory activity against carrageenan-induced paw edema rat inflammatory model assessed as paw volume at 10 mg/kg, po after 60 mins; format: functional
# Mus musculus [10] = organism: Mus musculus; test: Toxicity in Swiss mouse assessed as number of falls in 30 seconds after 15 mins by rotarod test; format: organism-based; settings: in vivo, 0.25 h
# [11] = Volume of distribution in Sprague-Dawley rat at 10 mg/kg, iv; format: ADME, organism-based; parameters: dose 10 mg/kg, route intravenous; settings: in vivo
# Rattus norvegicus [12] = organism: Rattus norvegicus; test: Analgesic activity against zymosan-induced hyperalgesia in rat assessed maximum effect measured up to 6 hrs
# [13] = Metabolic stability in human liver microsomes at 10 uM; format: ADME, Microsome; settings: read-out: Stability
# Mus musculus [14] = test: Analgesic activity against acetic acid-induced po dosed mouse abdominal constriction assessed as writhing; settings: Abdomen
# Mus musculus [15] = organism: Mus musculus; test: Toxicity in Swiss mouse assessed as number of falls in 30 seconds after 45 mins by rotarod test; format: organism-based; settings: in vivo, 0.75 h
# Mus musculus [16] = organism: Mus musculus; test: Toxicity in Swiss mouse assessed as number of falls in 30 seconds after 30 mins by rotarod test; format: organism-based; settings: in vivo, 0.5 h
# [17] = Oral bioavailability in Sprague-Dawley rat at 10 mg/kg; format: ADME, organism-based; settings: in vivo
# [18] = target: T2, Prostaglandin G/H synthase 1 (Mus musculus, UniProt P22437)
# T2 sequence (P22437 whole entry): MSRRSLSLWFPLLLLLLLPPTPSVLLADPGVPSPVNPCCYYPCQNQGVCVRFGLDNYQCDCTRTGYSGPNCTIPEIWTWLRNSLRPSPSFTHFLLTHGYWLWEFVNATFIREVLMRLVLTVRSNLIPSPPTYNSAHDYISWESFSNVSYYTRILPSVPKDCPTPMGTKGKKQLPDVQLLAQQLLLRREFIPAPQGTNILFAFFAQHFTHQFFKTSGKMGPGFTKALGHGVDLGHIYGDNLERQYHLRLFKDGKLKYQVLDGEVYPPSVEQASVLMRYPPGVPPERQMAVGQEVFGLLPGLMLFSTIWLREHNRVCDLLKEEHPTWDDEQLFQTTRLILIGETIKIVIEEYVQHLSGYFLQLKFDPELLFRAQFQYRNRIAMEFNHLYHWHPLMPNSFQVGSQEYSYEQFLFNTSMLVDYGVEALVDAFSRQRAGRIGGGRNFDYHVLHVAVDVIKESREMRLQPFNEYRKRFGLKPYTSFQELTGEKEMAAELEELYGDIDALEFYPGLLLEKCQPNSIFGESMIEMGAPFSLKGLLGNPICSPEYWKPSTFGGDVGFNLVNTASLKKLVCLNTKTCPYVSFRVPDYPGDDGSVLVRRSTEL
# Description: Inhibition of COX1-dependent PGE2 production in LPS-stimulated mouse J774 cells by RIA
# [19] = target: T3, Prostaglandin G/H synthase 2 (Mus musculus, UniProt Q05769)
# T3 sequence (Q05769 whole entry): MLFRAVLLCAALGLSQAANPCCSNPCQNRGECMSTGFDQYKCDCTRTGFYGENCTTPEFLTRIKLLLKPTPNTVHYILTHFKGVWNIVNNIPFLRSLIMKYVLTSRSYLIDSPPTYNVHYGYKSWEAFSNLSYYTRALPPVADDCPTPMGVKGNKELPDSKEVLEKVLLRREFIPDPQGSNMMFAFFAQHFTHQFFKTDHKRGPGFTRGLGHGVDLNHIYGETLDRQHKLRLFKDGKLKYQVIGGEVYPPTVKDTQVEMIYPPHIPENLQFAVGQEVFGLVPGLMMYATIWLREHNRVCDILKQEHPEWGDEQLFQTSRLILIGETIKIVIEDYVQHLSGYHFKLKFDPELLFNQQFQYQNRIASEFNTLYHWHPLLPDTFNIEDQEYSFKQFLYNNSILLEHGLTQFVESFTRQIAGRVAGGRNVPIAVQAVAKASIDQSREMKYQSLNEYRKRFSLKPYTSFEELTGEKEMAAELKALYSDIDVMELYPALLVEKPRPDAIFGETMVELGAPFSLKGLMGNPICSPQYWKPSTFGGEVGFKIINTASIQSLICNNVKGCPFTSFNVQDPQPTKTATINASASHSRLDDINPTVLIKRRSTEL
# Description: Inhibition of COX2-dependent PGE2 production in LPS-stimulated mouse J774 cells by RIA
# [20] = target: Prostaglandin G/H synthase 1 (Homo sapiens, UniProt P23219); test: Inhibition of COX1 in human whole blood assessed as thromboxane B2 production by RIA; format: tissue-based
# Prostaglandin G/H synthase 1 (Homo sapiens, UniProt P23219), sequence (P23219 whole entry): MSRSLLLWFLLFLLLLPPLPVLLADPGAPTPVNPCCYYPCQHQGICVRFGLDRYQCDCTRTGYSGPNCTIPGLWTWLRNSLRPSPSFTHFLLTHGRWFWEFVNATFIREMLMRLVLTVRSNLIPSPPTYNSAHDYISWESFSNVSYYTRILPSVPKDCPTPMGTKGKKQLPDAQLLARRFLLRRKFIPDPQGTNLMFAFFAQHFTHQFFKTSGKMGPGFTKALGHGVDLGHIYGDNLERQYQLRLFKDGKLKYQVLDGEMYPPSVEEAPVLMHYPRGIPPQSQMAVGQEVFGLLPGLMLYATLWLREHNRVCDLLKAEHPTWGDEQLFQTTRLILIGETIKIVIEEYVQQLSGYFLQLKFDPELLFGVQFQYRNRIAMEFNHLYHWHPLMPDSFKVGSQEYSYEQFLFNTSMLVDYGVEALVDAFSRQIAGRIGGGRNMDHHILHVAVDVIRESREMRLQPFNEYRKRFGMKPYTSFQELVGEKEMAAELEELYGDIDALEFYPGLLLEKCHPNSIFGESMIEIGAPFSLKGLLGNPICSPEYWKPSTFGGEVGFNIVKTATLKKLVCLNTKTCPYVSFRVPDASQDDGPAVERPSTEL
# Rattus norvegicus [21] = test: Antiinflammatory activity against carrageenan-induced paw edema rat inflammatory model assessed as paw pressure at 10 mg/kg, po after 120 mins; format: functional
# Rattus norvegicus [22] = test: Antiinflammatory activity against carrageenan-induced paw edema rat inflammatory model assessed as suppression of paw edema at 10 mg/kg, po after 60 mins; format: functional
structure (smiles),measurement,setting,value
Cc1c(CC(=O)OC(C)C)cc(-c2ccc(S(C)(=O)=O)cc2)n1-c1ccccc1,Activity,Mus musculus [1],Non-toxic
same,Activity,Rattus norvegicus [2],56.2 g
same,clearance,[3],33.3 mL/min
same,LBF,Rattus norvegicus [4],0.8 L/h
same,Activity,Rattus norvegicus [5],51.8 g
same,remaining at 0.1 µM,[6],11%
same,Activity,Rattus norvegicus [7],75%
same,IC50,[8],2500 nM
same,Activity,Rattus norvegicus [9],1.26 mL
same,Activity,Mus musculus [10],Non-toxic
same,Vd,[11],5.6 L
same,Activity,Rattus norvegicus [12],70%
same,remaining at 10 µM,[13],1%
same,Activity,Mus musculus [14],Dose-dependent effect
same,Activity,Mus musculus [15],Non-toxic
same,Activity,Mus musculus [16],Non-toxic
same,bioavailability,[17],42%
same,IC50,[18],> 100 µM
same,IC50,[19],7.3 nM
same,IC50,[20],20 µM
same,Activity,Rattus norvegicus [21],48.8 g
same,Activity,Rattus norvegicus [22],100%
